# Key:
# Assay type in all cases: in vivo
# [1] = system: Lolium multiflorum Lam. (Italian ryegrass, LOLMU); assay: Weed control of LOLMU in wheat crop, pre-emergence spray (Example 2); conditions: 450 g/L
# Protocol: (§1) Experiments were conducted to assess the efficacy of herbicidal combination comprising napropamide/napropamide-M to control a weed, Lolium multiflorum Lam. (Italian ryegrass, LOLMU) in wheat crop. The weed is resistant to control by conventional herbicides. Percentage efficacy of the herbicidal combination was determined over time (measured as days after anthesis, [DAA]) following application of the herbicidal combination comprising napropamide/napropamide-M and propisochlor. The herbicide combination was applied by spraying to LOLMU at pre-emergence stage.
# [2] = system: Lolium multiflorum Lam. (Italian ryegrass, LOLMU); assay: Weight of the weed in wheat crop (Example 2); conditions: for % Decrease in weight of weed: versus untreated control
# Protocol: as §1
# Further, the effect of the herbicidal combination was also assessed for the weight of the weed in wheat crop and the results has been disclosed in Table 3.
# LOLMU (S-strain) = assay: Efficacy of pre-emergence spray against resistant weed LOLMU (Example 1); conditions: sprayed at pre-emergence stage
# Protocol: Experiments were conducted to assess the efficacy of herbicidal combination comprising napropamide/napropamide-M to control a weed (LOLMU) which is resistant to control by conventional herbicides. Percentage efficacy of the herbicidal combination was determined over time (measured as days after anthesis, [DAA]) following application the of herbicidal combination comprising napropamide/napropamide-M and prosulfocarb. The herbicidal combination was applied by spraying to LOLMU (S-strain) at pre-emergence stage.
smiles,measurement,setting,value
"CCN(CC)C(=O)C(C)Oc1cccc2ccccc12 (stereo not drawn) [Napropamid, N,N-diethyl-2-(α-naphthoxy) propionamide]",Weed control (%) 15 DAA,[1]; dose 750 g/Ha,65%
same,Weed control (%) 25 DAA,[1]; dose 750 g/Ha,83%
same,Weed control (%) 45 DAA,[1]; dose 750 g/Ha,79%
same,Weed control (%) 15 DAA,[1]; dose 1000 g/Ha,72%
same,Weed control (%) 25 DAA,[1]; dose 1000 g/Ha,86%
same,Weed control (%) 45 DAA,[1]; dose 1000 g/Ha,82%
same,Weight of weed (g/m^2),"[2]; 450 g/L, dose 750 g/Ha",2.11 g/m^2
same,% Decrease in weight of weed,"[2]; 450 g/L, dose 750 g/Ha",27%
same,Weight of weed (g/m^2),"[2]; 450 g/L, dose 1000 g/Ha",1.86 g/m^2
same,% Decrease in weight of weed,"[2]; 450 g/L, dose 1000 g/Ha",36%
"CCN(CC)C(=O)[C@@H](C)Oc1cccc2ccccc12 [Napropamide-M 450 g/L, Napropamide-M]",Control in weed (%),LOLMU (S-strain); dose 315 g/Ha,69.80%
"CCc1cccc(C)c1N(COC(C)C)C(=O)CCl [Propisochlor, propisochlor]",Weight of weed (g/m^2),"[2]; 720 g/L, dose 800 g/Ha",760 g/m^2
same,% Decrease in weight of weed,"[2]; 720 g/L, dose 800 g/Ha",74%
"CCCN(CCC)C(=O)SCc1ccccc1 [Prosulfocarb 800 g/L, prosulfocarb]",Control in weed (%),LOLMU (S-strain); dose 2400 g/Ha,68.14%
same,Control in weed (%),LOLMU (S-strain); dose 5000 g/Ha,78.02%
